The source of these data is PubChem BioAssay (NCI).

Structures are written as SMILES.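 A five-concentration, 48-hour dose response in 96-well plates underlies each endpoint, interpolated linearly between surrounding concentrations. The concentration for 50% growth inhibition is given as GI50. TGI: concentration producing complete growth inhibition.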

Test systems include LOX IMVI melanoma; UACC-62 melanoma; NCI-H23 lung; HCC-2998 colon; RPMI-8226 leukemia; SK-OV-3 ovarian; OVCAR-4 ovarian; M14 melanoma; KM12 colon; EKVX NSCLC.
What all share (assay): growth of human tumour cells (NCI), 48 h

As to `CCCCCCCCOCC(O)COC(=O)CCCCCCC` (centres undefined), the TGI with LOX IMVI melanoma, with UACC-62 melanoma, in the test with NCI-H23 lung, in the test with HCC-2998 colon, with RPMI-8226 leukemia and with SK-OV-3 ovarian was above 100 µM each time. Further, the TGI in the test on OVCAR-4 ovarian and with M14 melanoma was above 100 µM each time.
As for `Cc1ccc2ncnc(N(CC(C)C)CC(C)C)c2c1`, the GI50 in the test on LOX IMVI melanoma was 16.2 µM; with UACC-62 melanoma it was 14.5 µM; in the test on NCI-H23 lung it was 11.1 µM; in the test on KM12 colon, 16.4 µM; in the test on HCC-2998 colon it was 16.2 µM; with RPMI-8226 leukemia, 1610 nM. Besides, the GI50 in the test with SK-OV-3 ovarian is 14.2 µM; with OVCAR-4 ovarian, 19 µM; in the test on M14 melanoma, 14.8 µM. The TGI with LOX IMVI melanoma was found to be 34.4 µM; in the test with UACC-62 melanoma, 32.1 µM; in the test on NCI-H23 lung, 28.5 µM; in the test on KM12 colon it was 40 µM; with HCC-2998 colon, 35.7 µM; with RPMI-8226 leukemia, 5.13 µM. Also, the TGI turned out to be 29.7 µM with SK-OV-3 ovarian, 52.6 µM with OVCAR-4 ovarian and 30.8 µM in the test on M14 melanoma.
As to `NC(N)=N/N=C/c1c(-c2cc(Cl)sc2Cl)nc2sccn12`, the GI50 in the test with EKVX NSCLC was 3.72 µM; in the test on UACC-62 melanoma, 0.752 µM; in the test on NCI-H23 lung, 7.5 µM; in the test on KM12 colon it was 1.04 µM; in the test with HCC-2998 colon, 0.854 µM; in the test on RPMI-8226 leukemia it was 744 nM. Moreover, the GI50 in the test on M14 melanoma is above 50 µM. For the same compound, the TGI in the test on EKVX NSCLC was found to be 13.1 µM; with UACC-62 melanoma it was 1.46 µM; in the test on NCI-H23 lung, 14.9 µM; in the test with KM12 colon, 2.75 µM; in the test with HCC-2998 colon, 1.56 µM; in the test with RPMI-8226 leukemia, 1.61 µM. Further, the TGI in the test on M14 melanoma is above 50 µM.
Regarding `CC(C)(C)OC(=O)NCCc1cccc2c1oc1c(CCC(=O)O)cccc12`, the TGI in the test on LOX IMVI melanoma, in the test with UACC-62 melanoma, with NCI-H23 lung, in the test on KM12 colon, in the test with HCC-2998 colon and in the test with RPMI-8226 leukemia was above 100 µM throughout. Also, the TGI with SK-OV-3 ovarian, with OVCAR-4 ovarian and with M14 melanoma was above 100 µM in each case.
Consider `Cn1cc(C2=C(c3cn(C)c4c([N+](=O)[O-])cccc34)C(=O)NC2=O)c2ccccc21`, for which the GI50 in the test with LOX IMVI melanoma is above 25 µM; in the test on UACC-62 melanoma, above 25 µM; with NCI-H23 lung it was above 25 µM; in the test on KM12 colon, above 25 µM; with HCC-2998 colon, above 25 µM; in the test on RPMI-8226 leukemia it was above 25000 nM. Further, the GI50 with SK-OV-3 ovarian, in the test with OVCAR-4 ovarian and with M14 melanoma was above 25 µM throughout. For the same compound, the TGI in the test with LOX IMVI melanoma, with UACC-62 melanoma, in the test with NCI-H23 lung, with KM12 colon, in the test with HCC-2998 colon and in the test with RPMI-8226 leukemia was above 25 µM throughout. In addition, the TGI with SK-OV-3 ovarian, in the test on OVCAR-4 ovarian and with M14 melanoma was above 25 µM each time.
As for `CC(/C(=N\Nc1ccccc1)c1ccc(O)cc1)C1C(=O)Oc2ccccc21` (centres undefined), the TGI in the test with LOX IMVI melanoma, in the test on EKVX NSCLC, in the test on UACC-62 melanoma, with KM12 colon, with HCC-2998 colon and with RPMI-8226 leukemia was above 100 µM in each case. Also, the TGI in the test on OVCAR-4 ovarian and in the test with M14 melanoma was above 100 µM each time.
Regarding `O=CNc1ncn[nH]1`, the TGI in the test with LOX IMVI melanoma, with EKVX NSCLC, in the test with UACC-62 melanoma, in the test on NCI-H23 lung, in the test on KM12 colon and with RPMI-8226 leukemia was above 100 µM throughout. Also, the TGI in the test on SK-OV-3 ovarian, in the test with OVCAR-4 ovarian and in the test with M14 melanoma was above 100 µM throughout.
For `C/C(=C\CCc1ccoc1)CC/C=C(\C)CCCN1CCOCC1`, the GI50 is 6.91 µM in the test with LOX IMVI melanoma; 5.02 µM in the test on UACC-62 melanoma; 6.03 µM in the test on NCI-H23 lung; 4.11 µM with KM12 colon; 10.9 µM with HCC-2998 colon; 1880 nM with RPMI-8226 leukemia. Also, the values for the GI50 in the test on SK-OV-3 ovarian, with OVCAR-4 ovarian and in the test with M14 melanoma were 7.06 µM, 3.21 µM and 1.65 µM, respectively. In addition, the TGI in the test on LOX IMVI melanoma was found to be 20.7 µM; with UACC-62 melanoma, 18.2 µM; in the test with NCI-H23 lung it was 21 µM; in the test on KM12 colon, 16.1 µM; with HCC-2998 colon, 23.8 µM; with RPMI-8226 leukemia, 4.99 µM. Besides, the TGI with SK-OV-3 ovarian is 19.7 µM; in the test on OVCAR-4 ovarian, 14.3 µM; with M14 melanoma, 3.42 µM.
With `CN(Cc1cc(Br)cc(Br)c1O)Cc1cc(Br)cc(Br)c1O`, the GI50 is 1.14 µM with LOX IMVI melanoma; 3.03 µM in the test on EKVX NSCLC; 1.8 µM in the test on UACC-62 melanoma; 3.28 µM in the test on NCI-H23 lung; 3.81 µM in the test on KM12 colon; 3.5 µM with HCC-2998 colon. For the same compound, the GI50 was 2770 nM in the test with RPMI-8226 leukemia, 1.79 µM in the test with OVCAR-4 ovarian and 1.69 µM with M14 melanoma. For the same compound, the TGI in the test on LOX IMVI melanoma is 17.4 µM; in the test with EKVX NSCLC it was 20.2 µM; in the test with UACC-62 melanoma, 11.8 µM; with NCI-H23 lung, 22.3 µM; with KM12 colon it was 16.4 µM; in the test on HCC-2998 colon it was 17 µM. Further, the TGI was determined as 47.9 µM in the test on RPMI-8226 leukemia, 18.9 µM in the test with OVCAR-4 ovarian and 15.6 µM in the test on M14 melanoma.
For `CC(=O)Nc1cc(N(CCOS(C)(=O)=O)CCOS(C)(=O)=O)ccc1N=O`, the TGI in the test with UACC-62 melanoma, in the test on NCI-H23 lung, in the test on KM12 colon, in the test on HCC-2998 colon, with RPMI-8226 leukemia and in the test with OVCAR-4 ovarian was above 100 µM each time. In the test with M14 melanoma, this compound displayed a TGI above 100 µM.
As for `O=C(O)c1cc(/C=C/c2cc(O)ccc2O)ccc1O`, the TGI in the test with LOX IMVI melanoma, with EKVX NSCLC, with UACC-62 melanoma, with NCI-H23 lung, in the test with HCC-2998 colon and in the test on OVCAR-4 ovarian was above 10 µM each time. The TGI with M14 melanoma was above 10 µM.
